Legend:
[1] = tested on: acetylcholine receptors; type: binding, mouse
[2] = tested on: GDNF; experiment: Summary of effects on growth factor mRNA and protein (Table R): GDNF; design: key: ± = mRNA; + = protein; nt = not tested
From the text: (§1) The constellation of effects of AIT-082 on production of mRNA encoding growth factors and on production of growth factor proteins is shown in Table R. The results summarized in […] show both transcriptional and translational effects on growth factors that are in the categories of neurotrophins, pleiotrophins, members of the S100 family of EF hand calcium binding proteins, and members of the TGFβ superfamily. As indicated, effects have been shown at both the mRNA (transcriptional) and protein (translational) levels.

[3] = tested on: BDNF; experiment: Summary of effects on growth factor mRNA and protein (Table R): BDNF; design: key: ± = mRNA; + = protein; nt = not tested
From the text: as §1

[4] = tested on: BDNF; experiment: Two-site ELISA of growth factor protein in rat brain and spinal cord: BDNF; type: in vivo, F344 rats
Procedure: Adult female F344 rats were given either AIT-082 (doses: 30 mg/kg/day or a higher dose of 30 mg/ml (˜3,000 mg/kg/day); n=6 rats per group) in their drinking water, or water alone, as a vehicle for control. The duration of the study was seven days, at which time the rats were anesthesized and perfused with ice-cold saline. The brains of the rats were rapidly removed. The brains were placed on a chilled glass plate and dissected into the following regions: basal forebrain, frontal cortex, parietal cortex, cerebellum, spinal cord, and hippocampal formation. Tissues were stored at −70° C. until assayed in a specific two-site ELISA for either NGF, BDNF, NT-3, or GNDF.
The results are shown in FIGS. 45 (BDNF), 46 (NT-3), 47 (GDNF) and 48 (NGF). For the results shown in FIGS. 45-48, animals were given only water (VEH, n=6) or water with AIT-082 at either 30 mg/kg/day (n=6) or 30 mg/ml (n=6) for seven days. The levels of each growth factor were determined in the frontal cortex (F. Cor.), parietal cortex (P.Cor.), hippocampal formation (Hipp.), basal forebrain (B.F.), cerebellum (Cer.), or spinal cord (Cord) using a specific two-site ELISA for each growth factor.
Adult female rats were given AIT-082 (30 mg/kg/day) in their drinking water or drinking water alone (n=6 for each group) for seven days prior to receiving a bilateral fimbria fornix transection (FFT).
The results are shown in FIGS. 49 (BDNF), 50 (NT-3), 51 (GDNF) and 52 (NGF). For the results shown in the Figures, animals were given only water (VEH, n=3) or water with AIT-082 at 30 mg/kg/day (n=3). Levels of the growth factor were determined in frontal cortex (F.Cor.), parietal cortex (P.Cor.), hippocampal formation (Hipp.), basal forebrain (B.F.), cerebellum (Cer.), or spinal cord (Cord) using a specific two-site ELISA for each growth factor.
Aged female Fischer 344 rats (obtained from National Institute on Aging; 24 months on arrival) were given AIT-082 (30 mg/kg/day) in their drinking water or drinking water alone, for a period of 30 days (n=5 rats per group). After 30 days, animals were sacrificed and fresh tissues were dissected as described above. An additional set of young animals (n=5) was processed along with the aged rats for comparison.
Results are shown in FIGS. 53 (BDNF), 54 (NT3), 55 (GDNF), and 56 (NGF). As described above, for the results shown in these figures, aged rats (24 months of age) were given water (vehicle control; n=5) or water with AIT-082 (at 30 mg/kg/day; n=5 for 30 days). A separate group of young untreated animals was also included (n=5). Levels of each growth factor were determined in frontal cortex (F.Cor.), parietal cortex (P. Cor.), hippocampal formation (Hipp.), basal forebrain (B.F.), cerebellum (Cer.) or spinal cord (Cord) using a specific two-site ELISA.

[5] = tested on: CNTF mRNA; experiment: RT-PCR of growth factor mRNA after T8 spinal cord hemisection: CNTF; type: in vivo, Wistar rats
[6] = tested on: rat caudate nuclei; experiment: GAD activity in rat caudate nuclei damaged by NMDA; type: in vivo
Procedure: The effect of AIT-082 on in vivo neuroprotection was also assessed by assaying for glutamic acid decarboxylase (GAD) activity.
GAD activity in rat caudate nuclei was damaged in vivo by NMDA. Increasing amounts of NMDA (25-300 nmoles) were unilaterally infused into caudate nuclei of rats. Eight to 10 days after the injections, glutarnic acid decarboxylase (GAD) activity was assayed, as an index of the loss of GABA-ergic neurons. NMDA produced a dose-dependent lesion, which at its maximal extension caused a reduction of GAD activity by 50% in comparison with that of contralateral sham-operated nuclei (control). […] The necrotic areas are in white, whereas the shadow is the surrounding edema GAD activity was evaluated by measuring the ex novo formation of [^3H]GABA from dissected striata exposed to 1 μCi of [^3H]glutamate for 1 hour at 37° C. GABA was assayed by HPLC with fluorescence detection and the [3H]label associated with GABA was measured.

[7] = tested on: rats; settings: oral or intraperitoneal route, preliminary
[8] = 79 different test systems
[9] = tested on: mice; experiment: Hot plate nocioception; type: in vivo; settings: hot plate 55° C.
Procedure: Mice were placed on an electric hot plate (Ominitech) at 55° C. and the latency time until the subject licked his hind paw was measured. If there was no response by 45 seconds, the trial was terminated. By this test there was no effect of AIT-082 on nocioception.

## O=C(CCn1cnc2c(=O)[nH]cnc21)Nc1ccc(C(=O)O)cc1 [AIT-082, N-4-carboxyphenyl-3-(6-oxohydropurin-9-yl)propanamide]
[1]
  interference with the binding of QNB: no effect
[2]; Aged Brain
  GDNF, effect on mRNA/protein production: +
[2]; Lesioned Brain
  GDNF, effect on mRNA/protein production: +
[2]; Normal Brain
  GDNF, effect on mRNA/protein production: +
[2]; Normal Spinal Cord
  GDNF, effect on mRNA/protein production: +
[3]; Aged Brain
  BDNF, effect on mRNA/protein production: +
[3]; Lesioned Spinal Cord
  BDNF, effect on mRNA/protein production: ±
[3]; Normal Brain
  BDNF, effect on mRNA/protein production: +
[3]; Normal Spinal Cord
  BDNF, effect on mRNA/protein production: +
[4]; FFT-lesioned rats, 30 mg/kg/day, frontal cortex, significance not achieved
  BDNF protein levels over vehicle controls: almost threefold
[4]; aged rats, 30 mg/kg/day 30 days, any brain region
  BDNF protein levels: no effect
[4]; intact adult rats, 30 mg/kg/day in drinking water 7 days, frontal cortex
  BDNF protein levels over vehicle controls: more than twofold
[4]; intact adult rats, 3000 mg/kg/day, frontal cortex
  BDNF protein levels over vehicle controls: not seen
[4]; intact adult rats, spinal cord, not significant (p>0.05)
  BDNF protein levels over vehicle controls: twofold
[5]; at the level of the lesion
  CNTF mRNA level: increased mean CNTF mRNA levels over control animals, although not statistically so
[5]; caudal to lesion, 7 days
  CNTF mRNA level: no significant effects
[5]; rostral to lesion, 3 days, sham-operated over lesion animals
  CNTF mRNA level: significantly increased
[5]; rostral to lesion, 7 days, control animals, over water alone (p=0.017)
  CNTF mRNA level: robust increase
[5]; rostral to lesion, 7 days, relative to lesion alone (p=0.056)
  CNTF mRNA level: increased CNTF mRNA levels
[6]; daily intraperitoneal injection for seven days, 200 mnoles NMDA
  GAD activity in damaged striata: nearly completely preserved GAD activity
[6]; local, 300 mnoles AIT-082 coinfused with 200 nmoles NMDA
  loss of GAD activity: almost completely prevented the loss of GAD activity
[7]
  LD50: > 3000 mg/kg
[8]
  toxicity in standard profile: absence of any toxicity
[9]
  effect on nocioception (hot plate latency): no effect

From US6338963B1, “Use of carbon monoxide dependent guanylyl cyclase modifiers to stimulate neuritogenesis” (NeoTherapeutics, Inc., priority 1994, dated 2002)
